According to PMC6538953, “Metal Ions Activate the Human Taste Receptor TAS2R7” (Chemical Senses, 2019):
Substitutions are numbered along the chain they refer to.

How the values were obtained:
[1] = biological target: T1, human TAS2R7 E264^7.32L mutant (Homo sapiens, UniProt Q9NYW3, E264L); assay: Calcium mobilization assay, TAS2R7 mutant E264L; assay type: cell-based; conditions: 20 mM metal ions except 0.16 mM Al2(SO4)3; cromolyn 10 mM; Figure 6B
T1 construct: signal peptide: first 45 amino acid residues of rat somatostatin receptor 3 (N); expressed in transfected cells; host or cells: HEK293 PEAKrapid (ATCC CRL-2828), transient, co-transfected with Gα16-gust44
T1 sequence (Q9NYW3 1-318 E264L): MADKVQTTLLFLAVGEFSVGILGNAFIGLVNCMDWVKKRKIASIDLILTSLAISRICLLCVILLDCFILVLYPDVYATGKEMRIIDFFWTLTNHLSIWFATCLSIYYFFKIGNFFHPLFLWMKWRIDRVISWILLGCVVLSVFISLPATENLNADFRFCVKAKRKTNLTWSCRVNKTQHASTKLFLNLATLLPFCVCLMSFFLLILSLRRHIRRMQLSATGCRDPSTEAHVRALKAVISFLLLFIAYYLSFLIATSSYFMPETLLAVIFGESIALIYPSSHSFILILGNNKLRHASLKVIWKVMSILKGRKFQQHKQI
Excerpt: (§1) The coding sequences of human TAS2Rs were amplified from human genomic DNA, then subcloned into pcDNA3.1(+) vector, with the herpes simplex virus glycoprotein D epitope (HSV) at the C-terminal and a signal peptide consisting of the first 45 amino acid residues of the rat somatostatin receptor 3 at the N-terminal, essentially as described previously ([Bufe et al. 2002]). Point mutations in human TAS2R7 (NCBI Reference Sequence: NP_076408.1) were constructed by site-directed mutagenesis. All the constructs were confirmed by Sanger sequencing.
Human embryonic kidney 293 (PEAKrapid, ATCC # CRL-2828) cells were cultured in Opti-MEM medium with 4% fetal bovine serum. One day before transfection, cells were seeded on a 96-well plate at a density of 25 000 per well. Cells were then transiently transfected with a TAS2R construct (0.1 µg/well) along with a G protein Gα16-gust44 (0.1 µg/well) construct by Lipofectamine 2000 (0.5 µl/well). For controls, only Gα16-gust44 was used (mock transfection). Twenty-four hours after transfection, cells were washed with HBSS including 10 mM HEPES and loaded with Fluo-4 in the dark for 1 h. After incubation, cells were washed 2 times with HBSS (including 10 mM HEPES), incubated in the dark for another 30 min, and then washed with assay solution once more before running the assay using a FlexStation III reader. Relative fluorescence units (excitation at 494 nm, emission at 516 nm, and auto cutoff at 515 nm) were read every 2 s for 2 min. Calcium mobilization traces were recorded.
Calcium mobilization traces were raw data obtained from single wells. Changes in fluorescence (ΔF) were calculated as the peak fluorescence minus baseline fluorescence ([Lei et al. 2015]). The calcium mobilization was quantified as the percentage of change (ΔF) relative to baseline (F). […] Calcium mobilization traces and bar graphs along with dose-dependent plots were all generated by GraphPad Prism 7. Analysis of variance with Dunnett’s multiple comparisons test was used for statistical analysis. *P < 0.05. […]

[2] = biological target: T2, human TAS2R7 E271^7.39 to leucine mutant (Homo sapiens, UniProt Q9NYW3, E271L); assay: Calcium mobilization assay, TAS2R7 mutant E271L; assay type: cell-based; conditions: 20 mM metal ions except 0.16 mM Al2(SO4)3; cromolyn 10 mM; Figure 6C
T2 construct: signal peptide: first 45 amino acid residues of rat somatostatin receptor 3 (N); expressed in transfected cells; host or cells: HEK293 PEAKrapid (ATCC CRL-2828), transient, co-transfected with Gα16-gust44
T2 sequence (Q9NYW3 1-318 E271L): T1 sequence (Q9NYW3 1-318 E264L) with L264E, E271L
Excerpt: as §1
Human embryonic kidney 293 (PEAKrapid, ATCC # CRL-2828) cells were cultured in Opti-MEM medium with 4% fetal bovine serum. […] After incubation, cells were washed 2 times with HBSS (including 10 mM HEPES), incubated in the dark for another 30 min, and then washed with assay solution once more before running the assay using a FlexStation III reader. Relative fluorescence units (excitation at 494 nm, emission at 516 nm, and auto cutoff at 515 nm) were read every 2 s for 2 min. Calcium mobilization traces were recorded.
Calcium mobilization traces were raw data obtained from single wells. Changes in fluorescence (ΔF) were calculated as the peak fluorescence minus baseline fluorescence ([Lei et al. 2015]). The calcium mobilization was quantified as the percentage of change (ΔF) relative to baseline (F). […]

Response of E264L mutant receptor [1]: reduced
Response of E271 to leucine mutant receptor [2]: slightly reduced responses
SMILES: O=C(O)c1cc(=O)c2c(OCC(O)COc3cccc4oc(C(=O)O)cc(=O)c34)cccc2o1 [cromolyn, reference compound]
